Biological target: Recombinant human BACE-1 (Homo sapiens (Human), UniProt P56817)
Assay: Assay of β-secretase-inhibiting activity
Assay type: biochemical
Details: substrate peptide 18 nM, BACE-1 7.4 nM, sodium acetate buffer pH 5.0, 30° C. for 3 hours

Chain of Recombinant human BACE-1 (P56817 46-501): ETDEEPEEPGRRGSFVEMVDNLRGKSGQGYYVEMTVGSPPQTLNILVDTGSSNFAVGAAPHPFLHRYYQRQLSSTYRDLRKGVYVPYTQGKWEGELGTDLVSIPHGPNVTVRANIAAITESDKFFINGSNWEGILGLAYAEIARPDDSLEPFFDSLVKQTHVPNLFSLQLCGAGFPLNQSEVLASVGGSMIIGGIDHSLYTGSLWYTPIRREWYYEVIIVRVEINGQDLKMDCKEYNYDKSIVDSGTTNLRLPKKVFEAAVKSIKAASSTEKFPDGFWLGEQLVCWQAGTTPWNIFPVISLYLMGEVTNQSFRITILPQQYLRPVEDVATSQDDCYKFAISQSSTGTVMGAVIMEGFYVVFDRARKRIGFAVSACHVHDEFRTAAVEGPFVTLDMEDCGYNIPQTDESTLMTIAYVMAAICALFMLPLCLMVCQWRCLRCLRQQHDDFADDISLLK

IC50: ≤ 1000 nM
Structure (SMILES): CC1(C)C[C@@](C)(c2cncc(NC(=O)c3ccc(Cl)cn3)c2)N=C(N)S1 [Compound 604]

Source: patent US8541408B2, “Aminodihydrothiazine derivatives substituted with a cyclic group” (Shionogi & Co., Ltd., priority 2007, dated 2013)
